How the values were obtained:
Carboplatin = compound: C1CC(C1)(C(=O)[O-])C(=O)[O-].N.N.[Pt+2] [Carboplatin]; conditions: max 10 µM
Outline: (§1)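 Following 24 hours at 37°C and 5% CO2, cancer cell lines in 1536-well plates with 7.5 μl DMEM/F12 or RPMI and 10% FBS were dosed for 72 hours, final DMSO typically being 0.2%. CellTiter-Glo 2.0 luminescence, scaled between blank-well and DMSO-well means, gave the viability readout. Dose responses were fitted to a two-parameter logistic curve with a non-linear mixed effects model, and the single-agent IC50 was derived from this fit.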

AZD5363 = compound: C1CN(CCC1(C(=O)N[C@@H](CCO)C2=CC=C(C=C2)Cl)N)C3=NC=NC4=C3C=CN4 [AZD5363]; conditions: max 10 µM
Outline: as §1

AZD1775 = compound: C=CCn1c(=O)c2cnc(Nc3ccc(N4CCN(C)CC4)cc3)nc2n1-c1cccc(C(C)(C)O)n1 [AZD1775]; conditions: max 3 µM
Outline: as §1

Trametinib = compound: CC(=O)Nc1cccc(-n2c(=O)n(C3CC3)c(=O)c3c(Nc4ccc(I)cc4F)n(C)c(=O)c(C)c32)c1 [Trametinib]; conditions: max 1 µM
Outline: as §1

Paclitaxel = compound: CC(=O)O[C@H]1C(=O)[C@@]2(C)[C@H]([C@H](OC(=O)c3ccccc3)[C@]3(O)C[C@H](OC(=O)[C@H](O)[C@@H](NC(=O)c4ccccc4)c4ccccc4)C(C)=C1C3(C)C)[C@]1(OC(C)=O)CO[C@@H]1C[C@@H]2O [Paclitaxel]; conditions: max 3 µM
Outline: as §1

Palbociclib = compound: CC(=O)c1c(C)c2cnc(Nc3ccc(N4CCNCC4)cn3)nc2n(C2CCCC2)c1=O [Palbociclib]; conditions: max 10 µM
Outline: as §1

AZD1390 = compound: CC(C)n1c(=O)n(C)c2cnc3cc(F)c(-c4ccc(OCCCN5CCCCC5)nc4)cc3c21 [AZD1390]; conditions: max 0.3 µM
Outline: as §1

Venetoclax = compound: CC1(C)CCC(CN2CCN(c3ccc(C(=O)NS(=O)(=O)c4ccc(NCC5CCOCC5)c([N+](=O)[O-])c4)c(Oc4cnc5[nH]ccc5c4)c3)CC2)=C(c2ccc(Cl)cc2)C1 [Venetoclax]; conditions: max 1 µM
Outline: as §1

Dasatinib = compound: CC1=C(C(=CC=C1)Cl)NC(=O)C2=CN=C(S2)NC3=CC(=NC(=N3)C)N4CCN(CC4)CCO [Dasatinib]; conditions: max 2 µM
Outline: as §1

SG3199 = compound: CC1=CN2[C@@H](C1)C=NC3=CC(=C(C=C3C2=O)OC)OCCCCCOC4=C(C=C5C(=C4)N=C[C@@H]6CC(=CN6C5=O)C)OC [SG3199]; conditions: max 0.001 µM
Outline: as §1

AZD2811 = compound: CCN(CCO)CCCOc1ccc2c(Nc3cc(CC(=O)Nc4cccc(F)c4)[nH]n3)ncnc2c1 [AZD2811]; conditions: max 1 µM
Outline: as §1

SN-38 = compound: CCc1c2c(nc3ccc(O)cc13)-c1cc3c(c(=O)n1C2)COC(=O)[C@]3(O)CC [SN-38]; conditions: max 0.3 µM
Outline: as §1

AZD0156 = compound: CN(C)CCCOc1ccc(-c2ccc3ncc4c(c3c2)n(C2CCOCC2)c(=O)n4C)cn1 [AZD0156]; conditions: max 3 µM
Outline: as §1

AZD4320 = compound: CN(CC[C@H](CSC1=CC=CC=C1)NC2=C(C=C(C=C2)S(=O)(=O)NC(=O)C3=CC=C(C=C3)N4CCC(CC4)[C@H](C5=CC=CC=C5C6=CC=C(C=C6)Cl)O)S(=O)(=O)C(F)(F)F)CCO [AZD4320]; conditions: max 1 µM
Outline: as §1

Alisertib = compound: COc1cc(Nc2ncc3c(n2)-c2ccc(Cl)cc2C(c2c(F)cccc2OC)=NC3)ccc1C(=O)O [Alisertib]; conditions: max 10 µM
Outline: as §1

Etoposide = compound: COc1cc([C@@H]2c3cc4c(cc3[C@@H](O[C@@H]3O[C@@H]5CO[C@@H](C)O[C@H]5[C@H](O)[C@H]3O)[C@H]3COC(=O)[C@H]23)OCO4)cc(OC)c1O [Etoposide]; conditions: max 10 µM
Outline: as §1

Gefitinib = compound: COc1cc2ncnc(Nc3ccc(F)c(Cl)c3)c2cc1OCCCN1CCOCC1 [Gefitinib]; conditions: max 10 µM
Outline: as §1

Prexasertib = compound: COc1cccc(OCCCN)c1-c1cc(Nc2cnc(C#N)cn2)n[nH]1 [Prexasertib]; conditions: max 1 µM
Outline: as §1

Doxorubicin = compound: COc1cccc2c1C(=O)c1c(O)c3c(c(O)c1C2=O)C[C@@](O)(C(=O)CO)C[C@@H]3O[C@H]1C[C@H](N)[C@H](O)[C@H](C)O1 [Doxorubicin]; conditions: max 1 µM
Outline: as §1

AZD5153 = compound: COc1nnc2ccc(N3CCC(c4ccc(OCCN5CCN(C)C(=O)[C@H]5C)cc4)CC3)nn12 [AZD5153]; conditions: max 1 µM
Outline: as §1

Lapatinib = compound: CS(=O)(=O)CCNCc1ccc(-c2ccc3ncnc(Nc4ccc(OCc5cccc(F)c5)c(Cl)c4)c3c2)o1 [Lapatinib]; conditions: max 10 µM
Outline: as §1

AZD8186 = compound: C[C@@H](Nc1cc(F)cc(F)c1)c1cc(C(=O)N(C)C)cc2c(=O)cc(N3CCOCC3)oc12 [AZD8186]; conditions: max 10 µM
Outline: as §1

Crizotinib = compound: C[C@@H](Oc1cc(-c2cnn(C3CCNCC3)c2)cnc1N)c1c(Cl)ccc(F)c1Cl [Crizotinib]; conditions: max 10 µM
Outline: as §1

Savolitinib = compound: C[C@@H](c1ccc2nccn2c1)n1nnc2ncc(-c3cnn(C)c3)nc21 [Savolitinib]; conditions: max 1 µM
Outline: as §1

AZD6738 = compound: C[C@@H]1COCCN1C2=NC(=NC(=C2)C3(CC3)[S@](=N)(=O)C)C4=C5C=CNC5=NC=C4 [AZD6738]; conditions: max 10 µM
Outline: as §1

AZD5991 = compound: Cc1c2c(nn1C)CSCc1cc(n(C)n1)CSc1cc(c3ccccc3c1)OCCCc1c(C(=O)O)n(C)c3c-2c(Cl)ccc13 [AZD5991]; conditions: max 1 µM
Outline: as §1

AZD7648 = compound: Cc1cc2ncnn2cc1Nc1ncc2c(n1)n(C1CCOCC1)c(=O)n2C [AZD7648]; conditions: max 10 µM
Outline: as §1

Taselisib = compound: Cc1nc(-c2cn3c(n2)-c2ccc(-c4cnn(C(C)(C)C(N)=O)c4)cc2OCC3)n(C(C)C)n1 [Taselisib]; conditions: max 10 µM
Outline: as §1

Selumetinib = compound: Cn1cnc2c(F)c(Nc3ccc(Br)cc3Cl)c(C(=O)NOCCO)cc21 [Selumetinib]; conditions: max 10 µM
Outline: as §1

SRA737 = compound: N#Cc1cnc(Nc2cc(NC[C@H]3CNCCO3)c(C(F)(F)F)cn2)cn1 [SRA737]; conditions: max 10 µM
Outline: as §1

MK-2206 = compound: NC1(c2ccc(-c3nc4ccn5c(=O)[nH]nc5c4cc3-c3ccccc3)cc2)CCC1 [MK-2206]; conditions: max 10 µM
Outline: as §1

Gemcitabine = compound: Nc1ccn([C@@H]2O[C@H](CO)[C@@H](O)C2(F)F)c(=O)n1 [Gemcitabine]; conditions: max 0.3 µM
Outline: as §1

[1] = compound: O=C(Nc1ccc2[nH]nc(-c3ccncc3)c2c1)[C@@H]1CCN(CC(=O)N2CCN(c3ccc(-c4ncccn4)cc3)CC2)C1; conditions: max 5 µM
Outline: as §1

Olaparib = compound: O=C(c1cc(Cc2n[nH]c(=O)c3ccccc23)ccc1F)N1CCN(C(=O)C2CC2)CC1 [Olaparib]; conditions: max 10 µM
Outline: as §1

5-Fluorouracil = compound: O=c1[nH]cc(F)c(=O)[nH]1 [5-Fluorouracil]; conditions: max 20 µM
Outline: as §1

Cell Line | IC50, cell viability 72 h (Carboplatin) [nM] | IC50, cell viability 72 h (AZD5363) [nM] | IC50, cell viability 72 h (AZD1775) [nM] | IC50, cell viability 72 h (Trametinib) [nM] | IC50, cell viability 72 h (Paclitaxel) [nM] | IC50, cell viability 72 h (Palbociclib) [nM] | IC50, cell viability 72 h (AZD1390) [nM] | IC50, cell viability 72 h (Venetoclax) [nM] | IC50, cell viability 72 h (Dasatinib) [nM] | IC50, cell viability 72 h (SG3199) [nM] | IC50, cell viability 72 h (AZD2811) [nM] | IC50, cell viability 72 h (SN-38) [nM] | IC50, cell viability 72 h (AZD0156) [nM] | IC50, cell viability 72 h (AZD4320) [nM] | IC50, cell viability 72 h (Alisertib) [nM] | IC50, cell viability 72 h (Etoposide) [nM] | IC50, cell viability 72 h (Gefitinib) [nM] | IC50, cell viability 72 h (Prexasertib) [nM] | IC50, cell viability 72 h (Doxorubicin) [nM] | IC50, cell viability 72 h (AZD5153) [nM] | IC50, cell viability 72 h (Lapatinib) [nM] | IC50, cell viability 72 h (AZD8186) [nM] | IC50, cell viability 72 h (Crizotinib) [nM] | IC50, cell viability 72 h (Savolitinib) [nM] | IC50, cell viability 72 h (AZD6738) [nM] | IC50, cell viability 72 h (AZD5991) [nM] | IC50, cell viability 72 h (AZD7648) [nM] | IC50, cell viability 72 h (Taselisib) [nM] | IC50, cell viability 72 h (Selumetinib) [nM] | IC50, cell viability 72 h (SRA737) [nM] | IC50, cell viability 72 h (MK-2206) [nM] | IC50, cell viability 72 h (Gemcitabine) [nM] | IC50, cell viability 72 h [1] [nM] | IC50, cell viability 72 h (Olaparib) [nM] | IC50, cell viability 72 h (5-Fluorouracil) [nM]
SU-DHL-6 (B-Cell Non-Hodgkin's Lymphoma) | > 10000 | 301 | 676 | > 1000 | 4.04 | 3570 | > 300 | 244 | 17.8 | > 1 | > 1000 | 8.04 | 2970 | 107 | 1090 | 1260 | > 10000 | > 1000 | 181 | 48.9 | 4980 | 228 | 2840 | > 1000 | > 10000 | 32.6 | > 10000 | 14.4 | > 10000 | > 10000 | 569 | 36.4 | > 5000 | > 10000 | > 20000
NCI-H2461 (Mesothelioma) | > 10000 | > 10000 | 630 | > 1000 | 735 | > 10000 | > 300 | > 1000 | > 2000 | > 1 | > 1000 | 91.8 | > 3000 | > 1000 | > 10000 | > 10000 | > 10000 | 48.2 | 379 | > 1000 | > 10000 | > 10000 | > 10000 | > 1000 | 4160 | > 1000 | > 10000 | 6270 | > 10000 | > 10000 | > 10000 | > 300 | > 5000 | > 10000 | > 20000

From the supplement of paper PMC11061612
